Assays:
[1] = tested on: full length SMN2 minigene mRNA containing SMN2 exon 7 (SMN2-A minigene); assay: SMN2 minigene mRNA splicing RT-qPCR assay in cultured cells; type: cell-based, human; conditions: Homo sapiens, HEK293-H; HEK293H cells stably transfected with SMN2-A minigene, 24 hours, 7-point concentration curve; concentration giving 1.5-fold SMN2 full length mRNA vs vehicle; read-out: EC1.5x for production of full length SMN2 mRNA
Protocol: SMN2 Minigene mRNA Splicing RT-qPCR Assay in Cultured Cells
The reverse transcription-quantitative PCR-based (RT-qPCR) assay is used to quantify the level of the full length SMN2 minigene mRNA containing SMN2 exon 7 in a HEK293H cell line stably transfected with said minigene and treated with a test compound.
Protocol. HEK293H cells stably transfected with the SMN2-A minigene construct described above (10,000 cells/well) are seeded in 200 μL of cell culture medium (DMEM plus 10% FBS, with 200 μg/mL hygromycin) in 96-well flat-bottom plates and the plate is immediately swirled to ensure proper dispersal of cells, forming an even monolayer of cells. Cells are allowed to attach for at least 4-6 hours. Test compounds are serially diluted 3.16-fold in 100% DMSO to generate a 7-point concentration curve. A solution of test compound (1 μL, 200× in DMSO) is added to each cell-containing well and the plate is incubated for 24 hours in a cell culture incubator (37° C., 5% CO2, 100% relative humidity). Two replicates are prepared for each test compound concentration. The cells are then lysed in Cells-To-Ct lysis buffer and the lysate is stored at −80° C.
Primer SMN Forward A (SEQ ID NO. 1) hybridizes to a nucleotide sequence in exon 7 (nucleotide 22 to nucleotide 40), primer SMN Reverse A (SEQ ID NO. 2) hybridizes to a nucleotide sequence in the coding sequence of Firefly luciferase, SMN Probe A (SEQ ID NO. 3) hybridizes to a nucleotide sequence in exon 7 (nucleotide 50 to nucleotide 54) and exon 8 (nucleotide 1 to nucleotide 21). The combination of these three oligonucleotides detects only SMN1 or SMN2 minigenes (RT-qPCR) and will not detect endogenous SMN1 or SMN2 genes.
The SMN forward and reverse primers are used at final concentrations of 0.4 μM. The SMN probe is used at a final concentration of 0.15 μM. The GAPDH primers are used at final concentrations of 0.2 μM and the probe at 0.15 μM.
The SMN2-minigene GAPDH mix (15 μL total volume) is prepared by combining 7.5 μL of 2×RT-PCR buffer, 0.4 μL of 25×RT-PCR enzyme mix, 0.75 μL of 20×GAPDH primer-probe mix, 4.0075 μL of water, 2 μL of 10-fold diluted cell lysate, 0.06 μL of 100 μM SMN forward primer, 0.06 μL of 100 μM SMN reverse primer, and 0.225 μL of 100 μM SMN probe.
PCR is carried out at the following temperatures for the indicated time: Step 1: 48° C. (15 min); Step 2: 95° C. (10 min); Step 3: 95° C. (15 sec); Step 4: 60° C. (1 min); then repeat Steps 3 and 4 for a total of 40 cycles.
Each reaction mixture contains both SMN2-A minigene and GAPDH primers/probe sets (multiplex design), allowing simultaneous measurement of the levels of two transcripts.
Two SMN spliced products are generated from the SMN2 minigene. The first spliced product containing exon 7, corresponding to SMN2 full length mRNA, is referred to herein using the term “SMN2 minigene FL.” The second spliced product lacking exon 7 is referred to herein using the term “SMN2 minigene Δ7.”
The increase of SMN2 minigene FL mRNA relative to that in cells treated with vehicle control is determined from real-time PCR data using a modified ΔΔCt method (as described in Livak and Schmittgen, Methods, 2001, 25:402-8). The amplification efficiency (E) is calculated from the slope of the amplification curve for SMN2 minigene FL and GAPDH mRNA individually. The abundance of SMN2 minigene FL and GAPDH mRNA are then calculated as (1+E)^−Ct, where Ct is the threshold value for each amplicon. The abundance of SMN2 minigene FL is normalized to GAPDH abundance. The normalized SMN2 minigene FL abundance from test compound-treated samples is then divided by normalized SMN2 minigene FL abundance from vehicle-treated cells to determine the level of SMN2 FL mRNA relative to vehicle control. […]

Smn protein = Smn protein assay (Smn HTRF) in cultured cells; type: cell-based, human; conditions: Homo sapiens, Fibroblast, GM03813 SMA Type 1 patient fibroblasts, 48 hours, HTRF; for maximal fold induction: 7-point concentration data, relative to vehicle, read-out: maximum fold (Fold) increase of Smn protein; for EC (1.5-fold): concentration producing 1.5 times Smn protein vs DMSO vehicle, read-out: EC1.5x for Smn protein expression
Protocol: Smn Protein Assay in Cultured Cells
The Smn HTRF (homogeneous time resolved fluorescence) assay is used to quantify the level of Smn protein in SMA patient fibroblast cells treated with test compounds.
Protocol. Cells are thawed and cultured in DMEM-10% FBS for 72 hours. Cells are trypsinized, counted and re-suspended to a concentration of 25,000 cells/mL in DMEM-10% FBS. The cell suspension is plated at 5,000 cells per well in a 96 well microtiter plate and incubated for 3 to 5 hours. […] Test compounds are serially diluted 3.16-fold in 100% DMSO to generate a 7-point concentration curve. 1 μL of test compound solution is transferred to cell-containing wells and cells are incubated for 48 hours in a cell culture incubator (37° C., 5% CO2, 100% relateive humidity). Triplicate samples are set up for each test compound concentration. After 48 hours, the supernatant is removed from the wells and 25 μL of the RIPA lysis buffer, containing protease inhibitors, is added to the wells and incubated with shaking at room temperature for 1 hour. 25 μL of the diluent is added and then 35 μL of the resulting lysate is transferred to a 384-well plate, where each well contains 5 μL of the antibody solution (1:100 dilution of anti-SMN d2 and anti-SMN kryptate in SMN reconstitution buffer). The plate is centrifuged for 1 minute to bring the solution to the bottom of the wells, then incubated overnight at room temperature. Fluorescence for each well of the plate at 665 nm and 620 nm is measured on an EnVision multilabel plate reader (Perkin-Elmer).
The normalized fluorescence signal is calculated for each sample, Blank and vehicle control well by dividing the signal at 665 nm by the signal at 620 nm. Normalizing the signal accounts for possible fluorescence quenching due to the matrix effect of the lysate. The AF value (a measurement of Smn protein abundance as a percent value) for each sample well is calculated by subtracting the normalized average fluorescence for the Blank control wells from the normalized fluorescence for each sample well, then dividing this difference by the normalized average fluorescence for the Blank control wells and multiplying the resulting value by 100. The ΔF value for each sample well represents the Smn protein abundance from test compound-treated samples. The ΔF value for each sample well is divided by the ΔF value for the vehicle control wells to calculate the fold increase in Smn protein abundance relative to the vehicle control.
For compounds of Formula (I) or a form thereof disclosed herein, Table 9 provides the EC1.5x for Smn protein expression that was obtained from the 7-point concentration data generated for each test compound according to the procedure of Biological Example 7. The term “EC1.5x for Smn protein expression” is defined as that concentration of test compound that is effective in producing 1.5 times the amount of Smn protein in an SMA patient fibroblast cell compared to the amount produced from the DMSO vehicle control. An EC1.5x for Smn protein expression between >3 μM and ≦10 μM is indicated by one star (*), an EC1.5x between >1 μM and ≦3 μM is indicated by two stars (**), an EC1.5x between >0.3 μM and ≦1 μM is indicated by three stars (***) and an EC1.5x≦0.3 μM is indicated by four stars (****).
For compounds of Formula (I) or a form thereof disclosed herein, Table 10 provides the maximum fold (Fold) increase of Smn protein that was obtained from the 7-point concentration data generated for each test compound according to the procedure of Biological Example 7. A maximum fold increase ≦1.2 is indicated by one star (*), a fold increase between >1.2 and ≦1.35 is indicated by two stars (**), a fold increase between >1.35 and ≦1.5 is indicated by three stars (***), a fold increase between >1.5 and ≦1.65 is indicated by four stars (****) and a fold increase >1.65 is indicated by five stars (*****).

SMILES | melting point [°C] | EC (1.5-fold) [1] [µM] | maximal fold induction (Smn protein) | EC (1.5-fold) (Smn protein) [µM]
COc1cc(F)c(-c2cc(=O)c3cc(N4CCN[C@H](C)C4)ccc3o2)cc1OC [Cpd 48, 2-(2-fluoro-4,5-dimethoxyphenyl)-6-[(3R)-3-methylpiperazin-1-yl]-4H-chromen-4-one] | 180 to 182 | 1 to 3 | 1.5 to 1.65 | 1 to 3
C[C@@H]1CN(c2ccc3oc(-c4cccnc4)cc(=O)c3c2)CCN1 [Cpd 11, 6-[(3R)-3-methylpiperazin-1-yl]-2-(pyridin-3-yl)-4H-chromen-4-one] | 148 to 150 | 0.3 to 1 | 1.35 to 1.5 | 3 to 10
CC(C)Oc1ccc(-c2cc(=O)c3cc(N4CCNCC4)ccc3o2)cc1 [Cpd 49, 6-(piperazin-1-yl)-2-[4-(propan-2-yloxy)phenyl]-4H-chromen-4-one] | 126 to 128 | 1 to 3 | ≤ 1.2 | 
COc1ccc(-c2cc(=O)c3cc(N4CCN[C@@H](C)C4)ccc3o2)cc1OC(F)(F)F [Cpd 70, 2-[4-methoxy-3-(trifluoromethoxy)phenyl]-6-[(3S)-3-methylpiperazin-1-yl]-4H-chromen-4-one] | 142 to 146 | 0.3 to 1 | 1.2 to 1.35 | 
Cc1csc(-c2cc(=O)c3cc(N4CCNCC4)ccc3o2)n1 [Cpd 76, 2-(4-methyl-1,3-thiazol-2-yl)-6-(piperazin-1-yl)-4H-chromen-4-one] | 179 to 182 | 0.3 to 1 | 1.5 to 1.65 | 1 to 3
O=c1cc(-c2cncc(F)c2)oc2ccc(N3CCNCC3)cc12 [Cpd 74, 2-(5-fluoropyridin-3-yl)-6-(piperazin-1-yl)-4H-chromen-4-one] | 182 to 184 | 0.3 to 1 | 1.5 to 1.65 | 1 to 3
COc1ccc(-c2cc(=O)c3cc(N4C[C@@H](C)N[C@@H](C)C4)ccc3o2)cc1F [Cpd 39, 6-[(3R,5S)-3,5-dimethylpiperazin-1-yl]-2-(3-fluoro-4-methoxyphenyl)-4H-chromen-4-one] | 180 to 182 | 0.1 to 0.3 | 1.5 to 1.65 | 3 to 10
COc1ccc(-c2cc(=O)c3cc(N4CCN[C@H](C)C4)ccc3o2)cc1OC [Cpd 23, 2-(3,4-dimethoxyphenyl)-6-[(3R)-3-methylpiperazin-1-yl]-4H-chromen-4-one] | 181 to 183 | 0.1 to 0.3 | 1.5 to 1.65 | 0.3 to 1
COc1ccc(-c2cc(=O)c3cc(N4C[C@@H](C)N[C@@H](C)C4)ccc3o2)cc1Cl [Cpd 60, 2-(3-chloro-4-methoxyphenyl)-6-[(3R,5S)-3,5-dimethylpiperazin-1-yl]-4H-chromen-4-one] | 176 to 178 | 0.1 to 0.3 | > 1.65 | 1 to 3
COc1ccc(-c2cc(=O)c3cc(N4CCNCC4)ccc3o2)cc1OC [Cpd 20, 2-(3,4-dimethoxyphenyl)-6-(piperazin-1-yl)-4H-chromen-4-one] | 177 to 179 | ≤ 0.1 | > 1.65 | 0.3 to 1

More lines, main results first:

melting point [°C] | SMILES | EC (1.5-fold) [1] [µM] | maximal fold induction (Smn protein) | EC (1.5-fold) (Smn protein) [µM]
106 to 108 | COc1ccc(-c2cc(=O)c3cc(N4CCCN(C)CC4)ccc3o2)cc1OC [Cpd 26, 2-(3,4-dimethoxyphenyl)-6-(4-methyl-1,4-diazepan-1-yl)-4H-chromen-4-one] | 3 to 30 | 1.35 to 1.5 | 
145 to 150 | COc1ccc(-c2cc(=O)c3cc(N4CCNCC4)ccc3o2)cc1Cl [Cpd 58, 2-(3-chloro-4-methoxyphenyl)-6-(piperazin-1-yl)-4H-chromen-4-one] | ≤ 0.1 | 1.35 to 1.5 | 1 to 3
250 to 254 | O=c1cc(-c2nc3ccccc3s2)oc2ccc(N3CCNCC3)cc12 [Cpd 32, 2-(1,3-benzothiazol-2-yl)-6-(piperazin-1-yl)-4H-chromen-4-one] | 1 to 3 | 1.2 to 1.35 | 
104 to 106 | COc1ccc(-c2cc(=O)c3cc(N4CCNCC4)ccc3o2)cc1OC(F)(F)F [Cpd 68, 2-[4-methoxy-3-(trifluoromethoxy)phenyl]-6-(piperazin-1-yl)-4H-chromen-4-one] | 0.3 to 1 | ≤ 1.2 | 
